Patent US11083198B2, “4H-pyrrolopyridine compound or salt thereof, agricultural and horticultural insecticide comprising the compound or the salt, and method for using the insecticide” (Nihon Nohyaku Co., Ltd., priority 2016, dated 2021)

Assays:
Plutella xylostella = test: Insecticidal Test on Plutella xylostella; format: in vivo; conditions: 144 h, Chinese cabbage seedlings with laid eggs dipped for about 30 seconds, 25° C., 6 days after the dip treatment, read-out: insecticidal efficacy (corrected mortality rate)
Excerpt: Insecticidal Test on Plutella xylostella
Adults of Plutella xylostella were released onto Chinese cabbage seedlings and allowed to lay eggs thereon. At 2 days after the release of the adults, the Chinese cabbage seedlings with laid eggs were dipped for about 30 seconds in agrochemical dispersions diluted to 500 ppm, each of which contained a different condensed heterocyclic compound represented by the general formula (1) of the present invention as an active ingredient. After air-dried, the seedlings were kept in a thermostatic chamber at 25° C. At 6 days after the dip treatment, the number of hatched larvae per plot was counted, the mortality rate was calculated according to the formula shown below, and the insecticidal efficacy was evaluated according to the criteria of Test Example 2. This test was conducted in triplicate using 10 adults of Plutella xylostella per plot. Corrected mortality rate(%)=100×(Number of hatched larvae in a non-treatment plot−Number of hatched larvae in a treatment plot)/Number of hatched larvae in a non-treatment plot [Math. 3]

Laodelphax striatellus = test: Insecticidal Test on Laodelphax striatellus; format: in vivo; conditions: 192 h, rice plant seedlings dipped for 30 seconds, 3rd-instar larvae, 8 days after the inoculation, read-out: insecticidal efficacy (corrected mortality rate)
Excerpt: Insecticidal Test on Laodelphax striatellus
The condensed heterocyclic compounds represented by the general formula (1) of the present invention or salts thereof were separately dispersed in water and diluted to 500 ppm. Rice plant seedlings (variety: Nihonbare) were dipped in the agrochemical dispersions for 30 seconds. After air-dried, each seedling was put into a separate glass test tube and inoculated with ten 3rd-instar larvae of Laodelphax striatellus, and then the glass test tubes were capped with cotton plugs. At 8 days after the inoculation, the numbers of surviving larvae and dead larvae were counted, the corrected mortality rate was calculated according to the formula shown below, and the insecticidal efficacy was evaluated according to the criteria shown below. Corrected mortality rate(%)=100×(Survival rate in a non-treatment plot−Survival rate in a treatment plot)/Survival rate in a non-treatment plot [Math. 2] Corrected Mortality Rate A: the corrected mortality rate is 100%. B: the corrected mortality rate is 90 to 99%. C: the corrected mortality rate is 80 to 89%. D: the corrected mortality rate is 50 to 79%.

| SMILES | mortality at 500 ppm (Plutella xylostella) | mortality at 500 ppm (Laodelphax striatellus) |
| --- | --- | --- |
| CCS(=O)(=O)c1cc(-c2cccc(C(F)(F)F)c2)cnc1-c1nc2cc(C(F)(F)F)cn(C)c-2c1Cl [Compound 1-13, 2-(5-(3-trifluoromethylphenyl)-3-ethylsulfonyl-pyridin-2-yl)-3-chloro-4-methyl-6-trifluoromethyl-4H-pyrrolo[3,2-b]pyridine] | 100% | 100% |
| CCn1cc(C(F)(F)F)cc2nc(-c3nc4cc(Br)ccc4cc3S(=O)(=O)CC)c(F)c1-2 [Compound 2-76, 2-(7-bromo-3-ethylsulfonyl-quinolin-2-yl)-3-fluoro-4-ethyl-6-trifluoromethyl-4H-pyrrolo[3,2-b]pyridine] | 100% | 100% |
| CCn1cc(C(F)(F)F)cc2nc(-c3nc4cc(Br)ccc4cc3S(=O)(=O)CC)c(Cl)c1-2 [Compound 2-52, 2-(7-bromo-3-ethylsulfonyl-quinolin-2-yl)-3-chloro-4-ethyl-6-trifluoromethyl-4H-pyrrolo[3,2-b]pyridine] | 100% | 100% |
| CCS(=O)(=O)c1c(-c2nc3cc(C(F)(F)F)cn(C)c-3c2F)nc2cc(C(F)(F)F)ccn12 [Compound 3-14, 2-(3-ethylsulfonyl-7-(trifluoromethyl)imidazo[1,2-a]pyridin-2-yl)-3-fluoro-4-methyl-6-(trifluoromethyl)-4H-pyrrolo[3,2-b]pyridine] | 100% | 100% |
| CCn1cc(C(F)(F)F)cc2nc(-c3ncc(-c4cccc(C(F)(F)F)c4)cc3S(=O)(=O)CC)c(F)c1-2 [Compound 1-16, 2-(5-(3-trifluoromethylphenyl)-3-ethylsulfonyl-pyridin-2-yl)-3-fluoro-4-ethyl-6-trifluoromethyl-4H-pyrrolo[3,2-b]pyridine] | 100% | 100% |
